Reference: ChEMBL document CHEMBL1201862, “PubChem BioAssay data set” (2004)
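Five compound concentrations were applied to cells in 96-well plates for 48 hours; endpoints were derived by simple linear interpolation of the resulting dose-response curve. GI50: concentration for 50% inhibition of growth.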 The source made the active and inactive calls. Rule as the data show it: active = GI50 up to about 1.1 µM and inactive = higher.

Assays:
Test in all cases: growth of human tumour cells (NCI), 48 h
CCRF-CEM = system: CCRF-CEM
COLO 205 = system: COLO 205
HOP-62 = system: HOP-62
HOP-92 = system: HOP-92
K562 = system: K562
OVCAR-4 = system: OVCAR-4
RPMI-8226 = system: RPMI-8226
SF-268 = system: SF-268
SK-MEL-28 = system: SK-MEL-28
SK-MEL-2 = system: SK-MEL-2
SNB-19 = system: SNB-19
SR = system: SR
TK-10 = system: TK-10
UACC-257 = system: UACC-257
LOX IMVI = system: LOX IMVI

Measured: GI50

N#C/N=C(/N)NCN/C(N)=N\C#N
inactive: CCRF-CEM > 100 µM | COLO 205 64.6 µM | HOP-62 > 100 µM | HOP-92 > 100 µM | K562 43.7 µM | OVCAR-4 59.4 µM | RPMI-8226 > 100 µM | SF-268 > 100 µM | SK-MEL-28 > 100 µM | SK-MEL-2 > 100 µM | SNB-19 > 100 µM | SR 27.1 µM | TK-10 > 100 µM | UACC-257 > 100 µM

CC1(C)Oc2ccccc2[N+]([O-])=C1c1ccccc1
inactive: CCRF-CEM > 100 µM | COLO 205 > 100 µM | HOP-62 > 100 µM | HOP-92 > 100 µM | K562 > 100 µM | OVCAR-4 > 100 µM | RPMI-8226 > 100 µM | SF-268 > 100 µM | SK-MEL-28 > 100 µM | SNB-19 > 100 µM | SR > 100 µM | UACC-257 > 100 µM

CC(=O)C1C(=O)C(=O)N(c2ccccc2C(C)C)C1=O (stereo unspecified)
inactive: CCRF-CEM > 100 µM | COLO 205 > 100 µM | HOP-62 > 100 µM | HOP-92 > 100 µM | K562 > 100 µM | LOX IMVI > 100 µM | OVCAR-4 > 100 µM | RPMI-8226 > 100 µM | SF-268 > 100 µM | SK-MEL-28 > 100 µM | SK-MEL-2 > 100 µM | SNB-19 > 100 µM | TK-10 > 100 µM | UACC-257 > 100 µM

O=S(=O)(C/C(=N\O)c1ccccc1)c1ccccc1
inactive: CCRF-CEM > 100 µM | COLO 205 > 100 µM | HOP-62 > 100 µM | HOP-92 > 100 µM | K562 > 100 µM | LOX IMVI > 100 µM | OVCAR-4 > 100 µM | RPMI-8226 > 100 µM | SF-268 > 100 µM | SK-MEL-28 > 100 µM | SK-MEL-2 > 100 µM | SNB-19 > 100 µM | TK-10 > 100 µM | UACC-257 > 100 µM

Nc1ncn([C@@H]2C=C(CO)C(O)C2O)c(=O)n1 (stereo partly specified)
inactive: CCRF-CEM 45.5 µM | COLO 205 37.8 µM | HOP-62 53.7 µM | HOP-92 > 100 µM | K562 43.6 µM | LOX IMVI 44.4 µM | OVCAR-4 > 100 µM | RPMI-8226 37.7 µM | SF-268 > 100 µM | SK-MEL-28 > 100 µM | SK-MEL-2 > 100 µM | SNB-19 > 100 µM | TK-10 > 100 µM | UACC-257 > 100 µM

CCC1CN2CCc3cc(OC)c(OC)cc3C2CC1CC1c2cc(OC)c(OC)cc2CCN1C(=O)CNC(=O)OC(C)(C)C (stereo unspecified)
inactive: CCRF-CEM 3.34 µM | COLO 205 3.44 µM | K562 3.34 µM | LOX IMVI 4.48 µM | OVCAR-4 2.88 µM | RPMI-8226 19 µM | SF-268 24.4 µM | SK-MEL-28 23.8 µM | SK-MEL-2 12.4 µM | SNB-19 13.9 µM | TK-10 28.6 µM | UACC-257 21.4 µM

CC1=C(C(=O)Nc2ccc([N+](=O)[O-])cc2)C(c2ccccc2F)C(C(=O)Nc2ccc([N+](=O)[O-])cc2)=C(C)N1
inactive: CCRF-CEM 7 µM | COLO 205 13 µM | HOP-62 15 µM | HOP-92 4.45 µM | K562 6.61 µM | LOX IMVI 11 µM | OVCAR-4 9.14 µM | RPMI-8226 3.8 µM | SF-268 21.2 µM | SK-MEL-28 20.7 µM | SK-MEL-2 9.31 µM | SNB-19 21.1 µM | TK-10 23.7 µM | UACC-257 15 µM

Cc1cccc2c1Sc1ccccc1C2NC(=O)CCN(C)C (stereo unspecified)
inactive: CCRF-CEM > 100 µM | COLO 205 > 100 µM | HOP-62 > 100 µM | K562 > 100 µM | LOX IMVI > 100 µM | OVCAR-4 > 100 µM | RPMI-8226 > 100 µM | SF-268 > 100 µM | SK-MEL-28 > 100 µM | SNB-19 > 100 µM | SR > 100 µM | TK-10 > 100 µM | UACC-257 > 100 µM

CC1C[C@]2(C[C@@H](C)C(=O)O2)O[C@@H]2CC3(C)[C@@H]4CCC5C(C)(C)OC(=O)C[C@H]6OO[C@]4(CC[C@]3(C)C12)CC56O (stereo partly specified)
inactive: LOX IMVI > 100 µM | OVCAR-4 > 100 µM | RPMI-8226 > 100 µM | SK-MEL-28 > 100 µM | SK-MEL-2 > 100 µM | SNB-19 > 100 µM | SR > 100 µM | TK-10 > 100 µM | UACC-257 > 100 µM

CC(C)c1ccccc1NC(=O)C(=O)Cc1nc2ccccc2s1
inactive: CCRF-CEM > 100 µM | COLO 205 > 100 µM | HOP-62 > 100 µM | HOP-92 > 100 µM | OVCAR-4 > 100 µM | SF-268 > 100 µM | SK-MEL-28 > 100 µM | SK-MEL-2 > 100 µM | SNB-19 > 100 µM | SR > 100 µM | TK-10 > 100 µM | UACC-257 > 100 µM

COc1ccc(/C=C2\C(=O)N(C(=O)Cc3ccccc3)N=C2C)cc1OC
inactive: CCRF-CEM > 100 µM | COLO 205 > 100 µM | HOP-62 > 100 µM | K562 > 100 µM | LOX IMVI > 100 µM | OVCAR-4 > 100 µM | RPMI-8226 > 100 µM | SF-268 > 100 µM | SK-MEL-28 > 100 µM | SK-MEL-2 > 100 µM | SNB-19 > 100 µM | SR > 100 µM | TK-10 > 100 µM | UACC-257 > 100 µM

c1ccc2c(c1)cc1n2CC2CN=NC12 (stereo unspecified)
inactive: HOP-62 > 100 µM | K562 > 100 µM | LOX IMVI > 100 µM | OVCAR-4 > 100 µM | RPMI-8226 > 100 µM | SF-268 > 100 µM | SK-MEL-28 > 100 µM | SK-MEL-2 > 100 µM | SNB-19 > 100 µM | SR > 100 µM | UACC-257 > 100 µM

O=C1OC(=O)c2c1c(-c1ccccc1)nc1ccccc21
inactive: CCRF-CEM > 100 µM | COLO 205 > 100 µM | HOP-62 > 100 µM | K562 > 100 µM | LOX IMVI > 100 µM | RPMI-8226 > 100 µM | SF-268 > 100 µM | SK-MEL-28 > 100 µM | SK-MEL-2 > 100 µM | SNB-19 > 100 µM | TK-10 > 100 µM | UACC-257 > 100 µM

COC(=O)c1sc(=NC(=S)N2CCCCC2)sc1C(=O)OC
inactive: CCRF-CEM 32.7 µM | COLO 205 63 µM | HOP-62 > 100 µM | K562 71.6 µM | OVCAR-4 > 100 µM | RPMI-8226 > 100 µM | SF-268 > 100 µM | SK-MEL-28 > 100 µM | SK-MEL-2 > 100 µM | SNB-19 > 100 µM | SR 22.9 µM | TK-10 > 100 µM | UACC-257 > 100 µM

COC(=O)/C(C#N)=C1\CCC(OC)N1 (stereo unspecified)
inactive: CCRF-CEM > 100 µM | COLO 205 > 100 µM | HOP-62 > 100 µM | K562 > 100 µM | LOX IMVI > 100 µM | OVCAR-4 > 100 µM | RPMI-8226 > 100 µM | SF-268 > 100 µM | SK-MEL-28 > 100 µM | SK-MEL-2 > 100 µM | SNB-19 > 100 µM | TK-10 > 100 µM | UACC-257 > 100 µM
